Reference: patent US9637483B2, “Heterocyclic compound” (TAKEDA PHARMACEUTICAL COMPANY LIMITED, priority 2013, dated 2017)

Columns and labels:
Format in all cases: biochemical
[1] = target: T1, JAK1 (Homo sapiens, UniProt P23458); assay: JAK1 enzyme inhibition test (LANCE method); details: 1 μM test compound; for inhibition at 1 µM: read-out: JAK1 enzyme inhibitory activity (%, 1 μM)
T1 construct: purchased Invitrogen
Outline: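 Inhibition expressed against no-enzyme wells (100% inhibition), from time-resolved fluorescence at 665 nm after Eu-anti-phosphotyrosine antibody/EDTA detection. Kinase reaction ran 1 h at room temperature, pH 7.5 HEPES buffer, ULight-JAK1 substrate and ATP diluted to 300 nM and 150 μM before addition.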

[2] = target: T2, JAK2 (Homo sapiens, UniProt O60674); assay: JAK2 enzyme inhibition test (LANCE method); details: 1 μM test compound; for inhibition at 1 µM: read-out: JAK2 enzyme inhibitory activity (%, 1 μM)
T2 construct: purchased Invitrogen
Outline: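 TR-FRET (LANCE) read-out, ex 340/em 665 nm with 100 μs delay, after 1 hr room-temperature detection with europium anti-phosphotyrosine antibody and 20 mM EDTA. The preceding 1 hr kinase reaction combined JAK2, ULight-JAK1 substrate and ATP, added as 6 ng/mL, 300 nM and 45 μM solutions; enzyme-free wells defined 100% inhibition.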

[3] = target: T3, JAK3 (Homo sapiens, UniProt P52333); assay: JAK3 enzyme inhibition test (LANCE method); details: 1 μM test compound; for inhibition at 1 µM: read-out: JAK3 enzyme inhibitory activity (%, 1 μM)
T3 construct: purchased Invitrogen
T3 sequence (P52333 1-1124): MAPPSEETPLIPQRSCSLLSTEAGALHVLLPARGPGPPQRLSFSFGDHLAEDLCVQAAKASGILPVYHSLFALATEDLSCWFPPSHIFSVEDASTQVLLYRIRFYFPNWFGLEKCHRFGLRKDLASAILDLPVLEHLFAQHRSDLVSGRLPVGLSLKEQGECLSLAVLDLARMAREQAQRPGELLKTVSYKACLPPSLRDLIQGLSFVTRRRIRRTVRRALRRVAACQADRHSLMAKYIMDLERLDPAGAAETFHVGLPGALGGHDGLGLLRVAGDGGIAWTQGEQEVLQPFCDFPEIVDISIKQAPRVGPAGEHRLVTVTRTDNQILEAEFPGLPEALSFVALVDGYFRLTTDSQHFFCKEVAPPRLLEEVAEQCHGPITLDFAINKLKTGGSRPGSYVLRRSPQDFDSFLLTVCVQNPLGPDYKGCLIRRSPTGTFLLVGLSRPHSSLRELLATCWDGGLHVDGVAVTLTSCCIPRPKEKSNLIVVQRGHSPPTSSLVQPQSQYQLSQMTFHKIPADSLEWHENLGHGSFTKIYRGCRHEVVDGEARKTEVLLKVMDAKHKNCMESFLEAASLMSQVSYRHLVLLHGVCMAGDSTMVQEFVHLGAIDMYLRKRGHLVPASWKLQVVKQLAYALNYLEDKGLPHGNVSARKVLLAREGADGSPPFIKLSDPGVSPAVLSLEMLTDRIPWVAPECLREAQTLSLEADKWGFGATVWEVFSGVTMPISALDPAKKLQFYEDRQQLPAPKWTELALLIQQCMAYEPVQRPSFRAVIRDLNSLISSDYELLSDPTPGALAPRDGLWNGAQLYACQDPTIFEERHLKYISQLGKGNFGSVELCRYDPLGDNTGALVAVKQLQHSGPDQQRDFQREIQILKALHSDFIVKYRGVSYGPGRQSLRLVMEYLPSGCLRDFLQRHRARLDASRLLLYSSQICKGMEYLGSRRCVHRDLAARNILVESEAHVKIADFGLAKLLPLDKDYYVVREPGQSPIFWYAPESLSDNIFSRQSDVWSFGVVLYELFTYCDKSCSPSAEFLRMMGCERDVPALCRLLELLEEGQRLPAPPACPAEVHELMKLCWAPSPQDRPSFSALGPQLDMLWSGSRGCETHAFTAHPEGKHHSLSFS
Outline: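 TR-FRET (LANCE) read: 1 h room-temperature reaction, EDTA quench, Eu-anti-phosphotyrosine antibody, emission 665 nm after 340 nm excitation. Added solutions held 12 ng/mL JAK3, 300 nM ULight-JAK1 substrate and 15 μM ATP (pH 7.5 HEPES). Activity expressed against no-enzyme wells defined as full inhibition.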

[4] = target: T4, TYK2 (Homo sapiens, UniProt P29597); assay: TYK2 enzyme inhibition test (LANCE method); details: 1 μM test compound; for inhibition at 1 µM: read-out: TYK2 enzyme inhibitory activity (%, 1 μM)
T4 construct: purchased Invitrogen
Outline: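 TR-FRET (LANCE) readout: after 1 h room-temperature kinase reaction, EDTA plus 4 nM Eu-labelled anti-phosphotyrosine antibody added, signal at 665 nm (340 nm excitation). Reaction combined TYK2, ULight-JAK1 substrate and ATP, prepared at 375 ng/mL, 300 nM and 30 μM before addition, in pH 7.5 HEPES/MgCl2 buffer; enzyme-free wells define full inhibition.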

T2 sequence (O60674 whole entry): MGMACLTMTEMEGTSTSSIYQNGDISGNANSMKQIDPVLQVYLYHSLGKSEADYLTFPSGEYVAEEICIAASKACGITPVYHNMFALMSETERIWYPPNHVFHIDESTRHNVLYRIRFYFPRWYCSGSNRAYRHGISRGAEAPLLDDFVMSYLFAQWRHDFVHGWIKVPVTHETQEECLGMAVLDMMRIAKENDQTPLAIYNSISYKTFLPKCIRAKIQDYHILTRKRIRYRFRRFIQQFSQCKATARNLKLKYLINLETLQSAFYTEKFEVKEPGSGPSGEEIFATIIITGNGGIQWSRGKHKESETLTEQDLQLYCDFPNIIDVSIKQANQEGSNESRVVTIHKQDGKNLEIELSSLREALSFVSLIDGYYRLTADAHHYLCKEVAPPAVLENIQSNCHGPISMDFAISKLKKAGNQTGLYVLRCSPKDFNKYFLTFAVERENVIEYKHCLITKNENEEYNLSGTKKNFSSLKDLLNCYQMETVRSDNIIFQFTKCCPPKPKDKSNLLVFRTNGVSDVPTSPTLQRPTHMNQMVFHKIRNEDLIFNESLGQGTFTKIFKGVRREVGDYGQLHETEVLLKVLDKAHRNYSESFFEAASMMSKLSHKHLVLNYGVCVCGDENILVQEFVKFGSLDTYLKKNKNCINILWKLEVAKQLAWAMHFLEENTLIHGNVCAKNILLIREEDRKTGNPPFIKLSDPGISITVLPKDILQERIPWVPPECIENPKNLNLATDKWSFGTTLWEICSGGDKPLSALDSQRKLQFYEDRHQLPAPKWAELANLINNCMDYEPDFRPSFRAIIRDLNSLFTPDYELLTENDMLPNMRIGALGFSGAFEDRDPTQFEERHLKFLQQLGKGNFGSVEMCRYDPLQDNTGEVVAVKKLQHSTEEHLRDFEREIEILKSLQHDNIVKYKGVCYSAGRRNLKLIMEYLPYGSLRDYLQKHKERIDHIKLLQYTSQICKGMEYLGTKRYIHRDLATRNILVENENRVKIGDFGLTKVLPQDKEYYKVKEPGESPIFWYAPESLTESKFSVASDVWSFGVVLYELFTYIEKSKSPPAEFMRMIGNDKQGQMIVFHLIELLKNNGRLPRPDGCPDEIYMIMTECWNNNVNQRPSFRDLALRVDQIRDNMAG
T1 sequence (P23458 whole entry): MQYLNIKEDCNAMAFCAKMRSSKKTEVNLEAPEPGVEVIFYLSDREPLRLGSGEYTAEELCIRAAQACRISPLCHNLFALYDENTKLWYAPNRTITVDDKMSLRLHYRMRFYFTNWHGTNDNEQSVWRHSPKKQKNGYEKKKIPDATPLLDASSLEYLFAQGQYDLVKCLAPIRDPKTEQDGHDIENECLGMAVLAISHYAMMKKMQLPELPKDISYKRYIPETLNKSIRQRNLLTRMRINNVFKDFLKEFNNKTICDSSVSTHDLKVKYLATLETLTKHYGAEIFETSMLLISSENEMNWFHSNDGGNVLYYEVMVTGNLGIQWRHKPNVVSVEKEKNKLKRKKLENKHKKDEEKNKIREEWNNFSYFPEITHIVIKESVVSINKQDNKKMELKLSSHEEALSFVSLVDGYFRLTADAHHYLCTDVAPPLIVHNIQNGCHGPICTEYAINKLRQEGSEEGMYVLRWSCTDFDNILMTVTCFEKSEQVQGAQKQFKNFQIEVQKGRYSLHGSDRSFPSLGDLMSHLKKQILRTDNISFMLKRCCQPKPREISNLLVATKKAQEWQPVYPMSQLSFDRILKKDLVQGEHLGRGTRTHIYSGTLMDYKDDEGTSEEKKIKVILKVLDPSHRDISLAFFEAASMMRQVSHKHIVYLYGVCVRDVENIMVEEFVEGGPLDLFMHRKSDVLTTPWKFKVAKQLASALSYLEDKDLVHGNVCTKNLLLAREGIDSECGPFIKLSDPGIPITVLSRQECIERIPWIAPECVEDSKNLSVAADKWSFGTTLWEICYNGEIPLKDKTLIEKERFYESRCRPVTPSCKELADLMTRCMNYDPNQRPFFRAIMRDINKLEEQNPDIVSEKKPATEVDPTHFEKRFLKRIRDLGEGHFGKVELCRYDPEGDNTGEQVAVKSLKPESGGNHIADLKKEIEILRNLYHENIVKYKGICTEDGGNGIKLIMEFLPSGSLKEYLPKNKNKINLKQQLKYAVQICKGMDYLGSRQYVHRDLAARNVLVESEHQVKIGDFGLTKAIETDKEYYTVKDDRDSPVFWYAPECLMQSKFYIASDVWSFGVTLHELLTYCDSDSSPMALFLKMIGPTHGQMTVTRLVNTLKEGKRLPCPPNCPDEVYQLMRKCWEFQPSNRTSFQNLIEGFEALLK
T4 sequence (P29597 whole entry): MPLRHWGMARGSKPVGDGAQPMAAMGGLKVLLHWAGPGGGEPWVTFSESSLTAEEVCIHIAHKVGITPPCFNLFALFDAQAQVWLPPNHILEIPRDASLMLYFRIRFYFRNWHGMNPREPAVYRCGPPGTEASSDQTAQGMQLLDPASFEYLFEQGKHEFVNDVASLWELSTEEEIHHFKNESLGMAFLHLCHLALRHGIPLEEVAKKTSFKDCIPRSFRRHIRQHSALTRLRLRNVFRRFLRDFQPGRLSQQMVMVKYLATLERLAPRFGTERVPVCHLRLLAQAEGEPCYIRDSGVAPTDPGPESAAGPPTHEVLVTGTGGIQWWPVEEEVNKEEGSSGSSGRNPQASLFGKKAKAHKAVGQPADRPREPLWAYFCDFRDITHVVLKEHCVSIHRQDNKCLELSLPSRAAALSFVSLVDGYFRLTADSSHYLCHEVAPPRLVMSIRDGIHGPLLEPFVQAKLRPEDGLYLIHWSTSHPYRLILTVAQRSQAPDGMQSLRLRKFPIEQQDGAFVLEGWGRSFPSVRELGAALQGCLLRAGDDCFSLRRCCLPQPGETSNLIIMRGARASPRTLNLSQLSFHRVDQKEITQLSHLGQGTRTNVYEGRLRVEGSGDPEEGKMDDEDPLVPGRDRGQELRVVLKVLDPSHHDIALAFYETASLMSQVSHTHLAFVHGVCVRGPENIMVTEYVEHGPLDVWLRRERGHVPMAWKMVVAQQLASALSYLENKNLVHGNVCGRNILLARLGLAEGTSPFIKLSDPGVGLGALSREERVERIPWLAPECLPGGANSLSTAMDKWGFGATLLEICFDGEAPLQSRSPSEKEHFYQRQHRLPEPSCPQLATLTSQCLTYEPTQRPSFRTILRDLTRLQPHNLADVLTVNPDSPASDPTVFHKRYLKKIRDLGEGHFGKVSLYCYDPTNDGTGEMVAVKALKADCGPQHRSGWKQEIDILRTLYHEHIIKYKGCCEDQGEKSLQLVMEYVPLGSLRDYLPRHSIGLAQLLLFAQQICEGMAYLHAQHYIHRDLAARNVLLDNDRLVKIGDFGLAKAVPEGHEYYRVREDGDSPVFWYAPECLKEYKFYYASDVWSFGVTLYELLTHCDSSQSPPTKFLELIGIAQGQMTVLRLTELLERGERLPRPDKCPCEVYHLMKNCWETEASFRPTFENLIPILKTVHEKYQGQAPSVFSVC

Row | Structure (SMILES) | inhibition at 1 µM [1] [%] | inhibition at 1 µM [2] [%] | inhibition at 1 µM [3] [%] | inhibition at 1 µM [4] [%] | JAK1 enzyme inhibitory activity (%, 1 μM) [1] [%] | JAK2 enzyme inhibitory activity (%, 1 μM) [2] [%] | JAK3 enzyme inhibitory activity (%, 1 μM) [3] [%] | TYK2 enzyme inhibitory activity (%, 1 μM) [4] [%]
1 | Cn1nc(-c2cn(C(C3CC3)C(F)(F)F)c(=O)c3c(N)n[nH]c23)cc1N1CCOCC1 (stereo not drawn) [Example 83, 3-amino-5-(1-cyclopropyl-2,2,2-trifluoroethyl)-7-(1-methyl-5-(morpholin-4-yl)-1H-pyrazol-3-yl)-1,5-dihydro-4H-pyrazolo[4,3-c]pyridin-4-one] | 99 | 100 | 100 | 100 |  |  |  | 
2 | CCOC(=O)C(C(C)C)n1cc(-c2cc(N3CCOCC3)n(C)n2)c2[nH]nc(N)c2c1=O (stereo not drawn) [Example 84, ethyl 2-(3-amino-7-(1-methyl-5-(morpholin-4-yl)-1H-pyrazol-3-yl)-4-oxo-1,4-dihydro-5H-pyrazolo[4,3-c]pyridin-5-yl)-3-methylbutanoate] | 84 | 87 | 97 | 83 |  |  |  | 
3 | CC(C)C(C(N)=O)n1cc(-c2cc(N3CCOCC3)n(C)n2)c2[nH]nc(N)c2c1=O (stereo not drawn) [Example 85, 2-(3-amino-7-(1-methyl-5-(morpholin-4-yl)-1H-pyrazol-3-yl)-4-oxo-1,4-dihydro-5H-pyrazolo[4,3-c]pyridin-5-yl)-3-methylbutanamide] | 68 | 86 | 89 | 89 |  |  |  | 
4 | CC(C)[C@H](C)n1cc(-c2cc(C(C)(C)O)n(C)n2)c2[nH]nc(N)c2c1=O.Cl [Example 86, 3-amino-7-(5-(2-hydroxypropan-2-yl)-1-methyl-1H-pyrazol-3-yl)-5-((2S)-3-methylbutan-2-yl)-1,5-dihydro-4H-pyrazolo[4,3-c]pyridin-4-one hydrochloride] |  |  |  |  | 98 | 98 | 99 | 100
5 | Cn1nc(-c2cn(C(C3CC3)C3CC3)c(=O)c3c(N)n[nH]c23)cc1N1CCS(=O)(=O)C(C)(C)C1 [Example 88, 3-amino-5-(dicyclopropylmethyl)-7-(5-(2,2-dimethyl-1,1-dioxidothiomorpholin-4-yl)-1-methyl-1H-pyrazol-3-yl)-1,5-dihydro-4H-pyrazolo[4,3-c]pyridin-4-one] | 99 | 100 | 99 | 99 |  |  |  | 
6 | CC(n1cc(-c2cc(N3CCOCC3)n(C)n2)c2[nH]nc(N)c2c1=O)C(C)(C)O (stereo not drawn) [Example 99, 3-amino-5-(3-hydroxy-3-methylbutan-2-yl)-7-(1-methyl-5-(morpholin-4-yl)-1H-pyrazol-3-yl)-1,5-dihydro-4H-pyrazolo[4,3-c]pyridin-4-one] | 83 | 85 | 97 | 99 |  |  |  | 

Continued, values first:

Row | inhibition at 1 µM [1] [%] | inhibition at 1 µM [2] [%] | inhibition at 1 µM [3] [%] | inhibition at 1 µM [4] [%] | JAK1 enzyme inhibitory activity (%, 1 μM) [1] [%] | JAK2 enzyme inhibitory activity (%, 1 μM) [2] [%] | JAK3 enzyme inhibitory activity (%, 1 μM) [3] [%] | TYK2 enzyme inhibitory activity (%, 1 μM) [4] [%] | Structure (SMILES)
7 | 97 | 99 | 99 | 100 |  |  |  |  | COC1(c2cc(-c3cn(C(C4CC4)C4CC4)c(=O)c4c(N)n[nH]c34)nn2C)CN(C(=O)C(C)C)C1 [Example 89, 3-amino-5-(dicyclopropylmethyl)-7-(5-(1-isobutyryl-3-methoxyazetidin-3-yl)-1-methyl-1H-pyrazol-3-yl)-1,5-dihydro-4H-pyrazolo[4,3-c]pyridin-4-one]
8 | 96 | 99 | 99 | 100 |  |  |  |  | COC1(c2cc(-c3cn(C(C4CC4)C4CC4)c(=O)c4c(N)n[nH]c34)nn2C)CN(S(=O)(=O)C(C)C)C1 [Example 90, 3-amino-5-(dicyclopropylmethyl)-7-(5-(1-(isopropylsulfonyl)-3-methoxyazetidin-3-yl)-1-methyl-1H-pyrazol-3-yl)-1,5-dihydro-4H-pyrazolo[4,3-c]pyridin-4-one]
9 | 96 | 88 | 97 | 99 |  |  |  |  | C[C@H](C1CC1)n1cc(-c2cc(C(C)(C)O)n(C)n2)c2[nH]nc(N)c2c1=O [Example 91, 3-amino-5-((1R)-1-cyclopropylethyl)-7-(5-(2-hydroxypropan-2-yl)-1-methyl-1H-pyrazol-3-yl)-1,5-dihydro-4H-pyrazolo[4,3-c]pyridin-4-one]
10 | 100 | 100 | 99 | 99 |  |  |  |  | CC(C)N1CCN(c2cc(-c3cn([C@@H](C)C4CC4)c(=O)c4c(N)n[nH]c34)nn2C)CC1=O [Example 92, 3-amino-5-((1S)-1-cyclopropylethyl)-7-(5-(4-isopropyl-3-oxopiperazin-1-yl)-1-methyl-1H-pyrazol-3-yl)-1,5-dihydro-4H-pyrazolo[4,3-c]pyridin-4-one]
11 | 100 | 100 | 100 | 99 |  |  |  |  | C[C@@H](C1CC1)n1cc(-c2cc(N3CCC(O)(C(F)(F)F)CC3)n(C)n2)c2[nH]nc(N)c2c1=O [Example 94, 3-amino-5-((1S)-1-cyclopropylethyl)-7-(5-(4-hydroxy-4-(trifluoromethyl)piperidin-1-yl)-1-methyl-1H-pyrazol-3-yl)-1,5-dihydro-4H-pyrazolo[4,3-c]pyridin-4-one]
12 | 100 | 100 | 100 | 99 |  |  |  |  | C[C@@H](C1CC1)n1cc(-c2cc(N3CCS(=O)(=O)C(C)(C)C3)n(C)n2)c2[nH]nc(N)c2c1=O [Example 95, 3-amino-5-((1S)-1-cyclopropylethyl)-7-(5-(2,2-dimethyl-1,1-dioxidothiomorpholin-4-yl)-1-methyl-1H-pyrazol-3-yl)-1,5-dihydro-4H-pyrazolo[4,3-c]pyridin-4-one]
13 | 99 | 100 | 100 | 100 |  |  |  |  | C[C@@H](C1CC1)n1cc(-c2cc(N3CCS(=O)(=O)CC3)n(C)n2)c2[nH]nc(N)c2c1=O [Example 96, 3-amino-5-((1S)-1-cyclopropylethyl)-7-(5-(1,1-dioxidothiomorpholin-4-yl)-1-methyl-1H-pyrazol-3-yl)-1,5-dihydro-4H-pyrazolo[4,3-c]pyridin-4-one]
14 | 97 | 99 | 99 | 100 |  |  |  |  | COC1(c2cc(-c3cn([C@@H](C)C4CC4)c(=O)c4c(N)n[nH]c34)nn2C)CN(C(=O)C(C)C)C1 [Example 97, 3-amino-5-((1S)-1-cyclopropylethyl)-7-(5-(1-isobutyryl-3-methoxyazetidin-3-yl)-1-methyl-1H-pyrazol-3-yl)-1,5-dihydro-4H-pyrazolo[4,3-c]pyridin-4-one]
15 | 97 | 100 | 100 | 100 |  |  |  |  | COC1(c2cc(-c3cn([C@@H](C)C4CC4)c(=O)c4c(N)n[nH]c34)nn2C)CN(S(=O)(=O)C(C)C)C1 [Example 98, 3-amino-5-((1S)-1-cyclopropylethyl)-7-(5-(1-(isopropylsulfonyl)-3-methoxyazetidin-3-yl)-1-methyl-1H-pyrazol-3-yl)-1,5-dihydro-4H-pyrazolo[4,3-c]pyridin-4-one]
